A short description of series [1]: Microsomal stability assay, mouse liver microsomes. The note with it: Example 11; for microsomal CLint at 0.1 uM: male, CD-1, mouse, liver microsomes, pH 7.4, Microsomal Stability Mouse Clint. A general note: Microsomes from liver hold many membrane-bound enzymes, among them those of drug oxidation.
In a further series the target is T1, DNA-PK (Homo sapiens, UniProt P78527).
T1 construct: purchased Invitrogen PR9107A
The series can be described thus: DNA-PK Assay for Biochemical Enzymatic Inhibition (ADP Glo Kinase assay). The note with it: Table 2. The procedure, abridged:
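Human DNA-PK (25 ng) preincubated 15 min with compounds (ten three-fold dilutions) in HEPES pH 7.5, MgCl2, KCl, calf thymus DNA buffer, then substrate 434.4 μM and ATP 64.4 μM (final) for 60 min at room temperature. ADP-Glo luminescence; percent inhibition fitted by four-parameter regression for IC50.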
In general terms: In ADP-Glo the light output rises with the ADP produced.

For another series, the system named is FaDu cell line. As to the kind of experiment: Prodrug activation in hypoxic stirred tumour cell suspensions. Type of series: in vitro ADME. Conditions: 10 μM, 4 hours.
Series [2] has as its target T2, DNA-PK phosphorylation at Serine 2056 (Homo sapiens, UniProt P78527).
T2 construct: host or cells: FaDu
The series can be described thus: Cellular Assay for Inhibition of DNA-PK Phosphorylation at Serine 2056 (FaDu cells, neocarzinostatin, sandwich ELISA). The format is cell-based. The note with it: Table 2. The procedure, abridged: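 FaDu cells were pretreated with compound (0.3% DMSO) for 1 h, then exposed to neocarzinostatin at 1 μg/mL final for 2 h to induce DSBs. Protein-normalized lysates were assayed by MSD sandwich ELISA for total and pSer2056 DNA-PK. IC50 came from variable-slope fits of % inhibition relative to DMSO and NCS controls.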
In general terms: ELISA stands for enzyme-linked immunosorbent assay.

Series [3] can be described thus: Microsomal stability assay, human liver microsomes. The format is in vitro ADME. The note with it: for Microsomal Stability (human) % rem. 60 min: Example 11; for microsomal CLint at 0.1 uM: both sexes, human, liver microsomes, pH 7.4, Example 11. The procedure:
Samples were then mixed and centrifuged. Supernatants were used for HPLC-MS/MS analysis. […] Peak areas corresponding to the test compound were recorded.

Series [4] concerns pH2AX induction in HCT116 ATM−/− multicellular tumour spheroids. As to the kind of experiment: Prodrug radiation sensitization in multicellular tumour spheroids (pH2AX induction following radiation). Conditions: Homo sapiens, HCT-116, 20 Gy. The format is cell-based. The procedure:
Prodrug compounds were assayed to determine their potency in 3D multicellular spheroids in media maintained under 20% vs […]. Multicellular tumour spheroids were grown to approximately 0.5 mm in diameter and irradiated with 20 Gy in combination with inhibitor test compounds to determine their potency using HCT116 and FaDu cell lines. Experiments were carried out in 96 well plates containing 0.7 mls of MEM media containing 10% FBS and 10 mM glucose under […] at 37° C. Following dilution of compounds 1:1000 from DMSO stocks, compounds were serially diluted from 10 μM down to 3.5 nM and 5-10 spheroids added. 96 well plates were constantly stirred to avoid spheroids settling during the course of the experiment. Endpoints were pDNA-PK (ser 2056) or pH2AX (ser 139) status in spheroid cryosections taken 1 or 2 hours following radiation and fixed immediately in formalin. Using tumour cell lines deficient in ATM improved the assay signal to noise and gH2AX readout. Using this assay prodrug activity could be compared in the more oxygenated outer spheroid layers versus less oxygenated hypoxic central cell layers.

[5] abbreviates: 5% O2, inner layers, read-out: Prodrug 5% O2 Inner layers EC50.
Setting [6] is: 5% O2, outer layers, read-out: Prodrug 5% O2 Outer layers EC50.
Setting [7] is: 20% O2, outer layers, read-out: Prodrug 20% O2 Outer layers EC50.

Each structure is given as a SMILES string. Where two headings read alike, the source gives them in different places.

Experimental for FaDu cell line: Prodrug compounds were assayed to determine their stability and rate of activation in stirred cell suspensions under 0.2 vs 5% oxygen. Compounds were diluted 1:1000 from DMSO stocks to 10 μM final concentration in tumour cell suspensions (1% by cell volume) in MEM media containing 10% FBS, 10 mM glucose & 3.7 g/L sodium bicarbonate. Cell lines assayed included A253, A549, Detroit562, FaDu, HCT116, HEP G2, HT29, SCC25, SCC9, SiHa & TC32. Compounds and cells were then incubated for 4 hours under constant mixing at 37° C. under 5% CO2 and either 0.2 or 5% O2. Following the incubation period cellular activation of the compounds was assayed via MeOH extraction and HPLC quantification.

As a reminder, the microsomal CLint is the rate of metabolic loss divided by the concentration. Read a low microsomal CLint as slow turnover. For orientation: IC50 means the point on the concentration scale where inhibition reaches its midpoint. The EC50 is the midpoint of the concentration-response curve. On to `CC(c1cnc([N+](=O)[O-])n1C)N(c1cnc2cc(N3CCOCC3)nc(OC3CCC(Nc4ncccn4)CC3)c2c1)S(C)(=O)=O` (stereo not shown) [LFA010, N-[1-(3-Methyl-2-nitro-imidazol-4-yl)ethyl]-N-[7-morpholino-5-[4-(pyrimidin-2-ylamino)cyclohexoxy]-1,6-naphthyridin-3-yl]methanesulfonamide], for which, in series [1], the “Microsomal Stability (mouse) % rem. 60 min” value is “E (% remaining = 0-25%)”. Besides, the figures for the intrinsic clearance (microsomal CLint) at 0.1 uM in series [1] and in series [3] were greater than 116 µL/min/mg and less than 116 µL/min/mg, respectively. The half-inhibitory concentration (IC50) on DNA-PK lay in the range of 10 to 150 nM; in series [2], 1000 to 10000 nM. The “Fraction of prodrug converted to active form, Hypoxic 0.2% O2” value (“Fraction … Hypoxic 0.2% O2” below) in the series with FaDu cell line is on record as “A (A is 0.15 to 1)”. In addition, in the series on FaDu cell line, the “Fraction of prodrug converted to active form, Oxic 5% O2” value (“Fraction … Oxic 5% O2” below) is “C (C is 0.02 to 0.05)”. In addition, in series [3], the “Microsomal Stability (human) % rem. 60 min” value is “E (% remaining = 0-25%)”. Further, the figures for the EC50 in series [4] (setting [5]), in series [4] (setting [6]) and in series [4] (setting [7]) were 10 to 500 nM, 10 to 500 nM and 1000 to 10000 nM, respectively.
As for `Cn1c(CN(c2cnc3cc(N4CCOCC4)nc(OC4CCC(Nc5ncc(C(F)(F)F)cn5)CC4)c3c2)S(C)(=O)=O)cnc1[N+](=O)[O-]` (stereo not shown) [LFA023, N-[(3-Methyl-2-nitro-imidazol-4-yl)methyl]-N-[7-morpholino-5-[4-[[5-(trifluoromethyl)pyrimidin-2-yl]amino]cyclohexoxy]-1,6-naphthyridin-3-yl]methanesulfonamide], in the series with FaDu cell line, the “Fraction … Hypoxic 0.2% O2” value is “B (B is 0.05 to 0.15)” and the “Fraction … Oxic 5% O2” value is “D (D is 0 to 0.02)”. In series [3], the “Microsomal Stability (human) % rem. 60 min” value is reported as “F (% remaining = 25-50%)” and the microsomal CLint at 0.1 uM is less than 116 µL/min/mg. Also, in series [4] (setting [5]), the half-maximal effective concentration (EC50) is 500 to 1000 nM. Also, the concentration for a half-maximal effect (EC50) in series [4] (setting [6]) lay within 1000 to 10000 nM. The EC50 in series [4] (setting [7]) lay in the range of 1000 to 10000 nM.
Take `CC(c1cnc([N+](=O)[O-])n1C)N(c1cnc2cc(N3CCOCC3)nc(OC3CCC(Nc4ncc(C(F)(F)F)cn4)CC3)c2c1)S(C)(=O)=O` (stereo not shown) [LFA024, N-[1-(3-Methyl-2-nitro-imidazol-4-yl)ethyl]-N-[7-morpholino-5-[4-[[5-(trifluoromethyl)pyrimidin-2-yl]amino]cyclohexoxy]-1,6-naphthyridin-3-yl]methanesulfonamide]: the “Microsomal Stability (mouse) % rem. 60 min” value in series [1] is on record as “E (% remaining = 0-25%)”. The microsomal CLint at 0.1 uM in series [1] is greater than 116 µL/min/mg; in series [3], less than 116 µL/min/mg. In the series with FaDu cell line, the “Fraction … Hypoxic 0.2% O2” value is reported as “B (B is 0.05 to 0.15)”. In addition, the “Fraction … Oxic 5% O2” value in the series with FaDu cell line is listed as “D (D is 0 to 0.02)”. Further, the “Microsomal Stability (human) % rem. 60 min” value in series [3] is “E (% remaining = 0-25%)”. For the same compound, the EC50 in series [4] (setting [5]) is 10 to 500 nM; in series [4] (setting [6]) it was 1000 to 10000 nM; in series [4] (setting [7]) it was 10000 to 100000 nM.
`Cn1c(CN(c2cnc3cc(N4CCOCC4)nc(OC4CCC(Nc5ncc(C#N)cn5)CC4)c3c2)S(C)(=O)=O)cnc1[N+](=O)[O-]` (stereo not shown) [LFA026, N-[5-[4-[(5-Cyanopyrimidin-2-yl)amino]cyclohexoxy]-7-morpholino-1,6-naphthyridin-3-yl]-N-[(3-methyl-2-nitro-imidazol-4-yl)methyl]methanesulfonamide]: the “Fraction … Hypoxic 0.2% O2” value in the series with FaDu cell line is “B (B is 0.05 to 0.15)”. In the series on FaDu cell line, the “Fraction … Oxic 5% O2” value is listed as “D (D is 0 to 0.02)”. Moreover, the “Microsomal Stability (human) % rem. 60 min” value in series [3] is listed as “E (% remaining = 0-25%)”. The compound further showed a microsomal CLint at 0.1 uM in series [3] greater than 116 µL/min/mg. Also, the EC50 fell in the range of 10 to 500 nM in series [4] (setting [5]), 1000 to 10000 nM in series [4] (setting [6]) and 1000 to 10000 nM in series [4] (setting [7]).
On to `CC(c1cnc([N+](=O)[O-])n1C)N(c1cnc2cc(N3CCOCC3)nc(OC3CCC(Nc4ncc(C#N)cn4)CC3)c2c1)S(C)(=O)=O` (stereo not shown) [LFA027, N-[5-[4-[(5-Cyanopyrimidin-2-yl)amino]cyclohexoxy]-7-morpholino-1,6-naphthyridin-3-yl]-N-[1-(3-methyl-2-nitro-imidazol-4-yl)ethyl]methanesulfonamide], for which, in series [1], the “Microsomal Stability (mouse) % rem. 60 min” value is “E (% remaining = 0-25%)” and the intrinsic clearance (microsomal CLint) at 0.1 uM is greater than 116 µL/min/mg. Moreover, in the series with FaDu cell line, the “Fraction … Hypoxic 0.2% O2” value is recorded as “B (B is 0.05 to 0.15)” and the “Fraction … Oxic 5% O2” value is “C (C is 0.02 to 0.05)”. In series [3], the “Microsomal Stability (human) % rem. 60 min” value is listed as “E (% remaining = 0-25%)” and the microsomal CLint at 0.1 uM is greater than 116 µL/min/mg. For the same compound, the EC50 in series [4] (setting [5]) was 10 to 500 nM. Moreover, the 50% effective concentration (EC50) in series [4] (setting [6]) was in the range of 500 to 1000 nM. Also, in series [4] (setting [7]), the EC50 lay in the range of 1000 to 10000 nM.

The record behind these values is patent US20240246960A1 (adMare Therapeutics Society, priority 2021, published 2024).
